According to PubChem BioAssay AID328 (DTP/NCI, 2004):
Inconclusive results and toxic doses are left out.

System: BDF1 mice, P388 leukemia ip, median survival T/C
Assay: NCI In Vivo Anticancer Drug Screen. Data for tumor model P388 Leukemia (intraperitoneal) in B6D2F1 (BDF1) mice
Settings: endpoint: median survival time, higher = longer survival
Summary of the method: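 Compound-treated tumour-bearing mice were compared with vehicle-treated controls. Survival was recorded, and the value is the treated-group measurement divided by the control-group measurement (T/C).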

[1] = dose: 50.0 mg/kg/injection, schedule: Q01DX009 (ip), vehicle: saline
[2] = dose: 100.0 mg/kg/injection, schedule: Q01DX009 (ip), vehicle: saline

Q: CC1(C)NC(=O)NC1=O was tested. Which T/C (dose: 100.0 mg/kg/injection, schedule: Q01DX001 (ip), vehicle: saline with Tween-80) did it give?
A: 100 % of control

Q: And the T/C (dose: 200.0 mg/kg/injection, schedule: Q01DX001 (ip), vehicle: saline with Tween-80)?
A: 100 % of control

Q: What about the T/C (dose: 400.0 mg/kg/injection, schedule: Q01DX001 (ip), vehicle: saline with Tween-80) of the same molecule?
A: 100 % of control

Q: Which results are given for CC(=O)CC(C)(C)N?
A: T/C (dose: 25.0 mg/kg/injection, schedule: Q01DX009 (ip), vehicle: saline): 95 % of control; T/C [1]: 104 % of control

Q: For CC1=CP(=O)(O)CC1, which T/C [1] is on record?
A: 95 % of control

Q: And the T/C [2]?
A: 95 % of control

Q: With Cc1cc(C)cc(NCCC#N)c1 as the molecule, how does the T/C (dose: 100.0 mg/kg/injection, schedule: Q01DX009 (ip), vehicle: other) read?
A: 115 % of control

Q: And the T/C (dose: 200.0 mg/kg/injection, schedule: Q01DX009 (ip), vehicle: other)?
A: 115 % of control

Q: What about the T/C (dose: 400.0 mg/kg/injection, schedule: Q01DX009 (ip), vehicle: other) of the same molecule?
A: 105 % of control

Q: For O=C(O)CC(NC(=O)CP(=O)(O)O)C(=O)O (configuration not stated), which T/C [1] is on record?
A: 117 % of control

Q: What about the T/C [2] of the same molecule?
A: 118 % of control

Q: And the T/C (dose: 100.0 mg/kg/injection, schedule: Q01DX009 (ip), vehicle: water)?
A: 100 % of control

Q: And the T/C (dose: 180.0 mg/kg/injection, schedule: Q04DX003 (ip), vehicle: saline)?
A: 118 % of control

Q: What about the T/C (dose: 200.0 mg/kg/injection, schedule: Q01DX009 (ip), vehicle: saline) of the same molecule?
A: 157 % of control

Q: What about the T/C (dose: 200.0 mg/kg/injection, schedule: Q01DX009 (ip), vehicle: water) of the same molecule?
A: 109 % of control

Q: And the T/C (dose: 300.0 mg/kg/injection, schedule: Q01DX009 (ip), vehicle: saline)?
A: 109 % of control

Q: What about the T/C (dose: 300.0 mg/kg/injection, schedule: Q01DX009 (ip), vehicle: water) of the same molecule?
A: 106 % of control

Q: What about the T/C (dose: 300.0 mg/kg/injection, schedule: Q04DX003 (ip), vehicle: saline) of the same molecule?
A: 109 % of control

Q: What about the T/C (dose: 400.0 mg/kg/injection, schedule: Q01DX009 (ip), vehicle: saline) of the same molecule?
A: 96 % of control

Q: What about the T/C (dose: 500.0 mg/kg/injection, schedule: Q04DX003 (ip), vehicle: saline) of the same molecule?
A: 122 % of control

Q: And the T/C (dose: 600.0 mg/kg/injection, schedule: Q04DX003 (ip), vehicle: saline)?
A: 118 % of control

Q: What about the T/C (dose: 750.0 mg/kg/injection, schedule: Q04DX003 (ip), vehicle: saline) of the same molecule?
A: 163 % of control

Q: And the T/C (dose: 833.0 mg/kg/injection, schedule: Q04DX003 (ip), vehicle: saline)?
A: 100 % of control

Q: What about the T/C (dose: 1000.0 mg/kg/injection, schedule: Q04DX003 (ip), vehicle: saline) of the same molecule?
A: 85 % of control

Q: And the T/C (dose: 1500.0 mg/kg/injection, schedule: Q04DX003 (ip), vehicle: saline)?
A: 64 % of control

Q: How did the T/C (dose: 25.0 mg/kg/injection, schedule: Q01DX009 (ip), vehicle: saline with Tween-80) turn out when O=C(c1cc2c3ccccc3ccc2c2ccccc12)C(Br)Br was run?
A: 113 % of control

Q: With CC(=O)NNc1ccc([N+](=O)[O-])cc1 as the molecule, how does the T/C (dose: 100.0 mg/kg/injection, schedule: Q01DX009 (ip), vehicle: Klucel (hydroxypropylcellulose) (HPC)) read?
A: 100 % of control

Q: What about the T/C (dose: 100.0 mg/kg/injection, schedule: Q04DX003 (ip), vehicle: Klucel (hydroxypropylcellulose) (HPC)) of the same molecule?
A: 105 % of control

Q: And the T/C (dose: 200.0 mg/kg/injection, schedule: Q01DX009 (ip), vehicle: Klucel (hydroxypropylcellulose) (HPC))?
A: 90 % of control

Q: And the T/C (dose: 200.0 mg/kg/injection, schedule: Q04DX003 (ip), vehicle: Klucel (hydroxypropylcellulose) (HPC))?
A: 90 % of control

Q: And the T/C (dose: 400.0 mg/kg/injection, schedule: Q01DX009 (ip), vehicle: Klucel (hydroxypropylcellulose) (HPC))?
A: 90 % of control

Q: And the T/C (dose: 400.0 mg/kg/injection, schedule: Q04DX003 (ip), vehicle: Klucel (hydroxypropylcellulose) (HPC))?
A: 90 % of control

Q: CCOC(=O)c1ccc(N(CCOS(C)(=O)=O)CCOS(C)(=O)=O)cc1 was tested. Which T/C (dose: 66.0 mg/kg/injection, schedule: Q01DX008 (ip), vehicle: saline with Tween-80) did it give?
A: 200 % of control

Q: And the T/C (dose: 100.0 mg/kg/injection, schedule: Q01DX008 (ip), vehicle: saline with Tween-80)?
A: 222 % of control

Q: And the T/C (dose: 132.0 mg/kg/injection, schedule: Q04DX003 (ip), vehicle: saline with Tween-80)?
A: 177 % of control

Q: What about the T/C (dose: 150.0 mg/kg/injection, schedule: Q01DX008 (ip), vehicle: saline with Tween-80) of the same molecule?
A: 272 % of control

Q: What about the T/C (dose: 200.0 mg/kg/injection, schedule: Q04DX003 (ip), vehicle: saline with Tween-80) of the same molecule?
A: 190 % of control

Q: And the T/C (dose: 300.0 mg/kg/injection, schedule: Q04DX003 (ip), vehicle: saline with Tween-80)?
A: 195 % of control

Q: With OCC1CN(c2ccccc2)N=N1 (configuration not stated) as the molecule, how does the T/C (dose: 50.0 mg/kg/injection, schedule: Q04DX002 (ip), vehicle: saline + alcohol) read?
A: 107 % of control

Q: And the T/C (dose: 100.0 mg/kg/injection, schedule: Q04DX002 (ip), vehicle: saline + alcohol)?
A: 107 % of control

Q: What about the T/C (dose: 200.0 mg/kg/injection, schedule: Q04DX002 (ip), vehicle: saline + alcohol) of the same molecule?
A: 116 % of control
